Patent US20250354192A1, “METHODS FOR QUANTIFYING LIVE BACTERIA” (priority 2022, published 2025)

Test system: innate live bacterial populations in whole carcass rinsates
Experiment: 3-step metabolic labeling of whole carcass rinsates with or without EDA, PIPER
Assay type: cell-based
Conditions: two whole carcass rinsate samples
Procedure: Experimental Detail: Whole carcass rinsate samples were prepared as per FSIS USDA guidance using two separate whole chickens from the grocery store obtained prior to “use by” date. Sodium polyanethol sulfonate was added to 0.05% to limit blood clotting. Prior to 3-step metabolic labeling, an aliquot from each rinsate was removed for serial dilution and plating on APC petrifilm (3M, Saint Paul, MN) and incubated as per manufacturer instructions to evaluate the number of total viable bacteria by the “gold standard” method. 1 mL rinsate aliquots were used for incubation with, or without EDA, as a control for non-specific staining with the fluorophore. The 1st step of labeling was carried out by adding 5 μg/mL chloramphenicol and 1 mM EDA, where indicated, followed by 90 min incubation at 37° C. […]
FIG. 25 depicts how 3-step metabolic labeling detects innate live bacterial populations in whole carcass rinsates. FIG. 25A depicts PIPER images of innate populations of live bacteria detected by 3-step metabolic labeling in two separate whole carcass rinsate samples. […] To convert the PIPER counts into the number of live bacteria per swab, the values were corrected for the volume of the viewing window relative to the total sample volume loaded into the cartridge lane, and the fraction of the total sample volume analyzed.

Question: For `C#CC[C@@H](N)C(=O)O` [EDA, D-propargylglycine], which “signal on omitting EDA from the 1st step of labeling” value is on record?
Answer: Its value is “dramatic reduction of the signal”.
